Assay results published in the supplement of paper PMC8671470.

Key:
Assay in all cases: cell viability (% survival relative to DMSO control, bortezomib = 0%); higher = less cytotoxic
Settings in all cases: 72 h
ML-2 = test system: ML-2
In short: (§1)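 Fifteen myeloid leukaemia cell lines (10 AML, 5 CML) were seeded at a density titrated to the linear growth range. They went into 384-well plates with compounds pre-printed at 1, 10, 100, 1000 or 10000 nM in duplicate. After 72 h at 37 °C with 5% CO2, viability was read by CellTiter-Glo luminescence. Values are percent survival, with vehicle set to 100% and a 10 µM positive control to 0%, averaged over the duplicates.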

MOLM-13 = test system: MOLM-13
In short: as §1

NOMO-1 = test system: NOMO-1
In short: as §1

THP-1 = test system: THP-1
In short: as §1

| SMILES | cell viability (ML-2; 1 nM) | cell viability (ML-2; 10 nM) | cell viability (ML-2; 100 nM) | cell viability (ML-2; 1000 nM) | cell viability (ML-2; 10000 nM) | cell viability (MOLM-13; 1 nM) | cell viability (MOLM-13; 10 nM) | cell viability (MOLM-13; 100 nM) | cell viability (MOLM-13; 1000 nM) | cell viability (MOLM-13; 10000 nM) | cell viability (NOMO-1; 1 nM) | cell viability (NOMO-1; 10 nM) | cell viability (NOMO-1; 100 nM) | cell viability (NOMO-1; 1000 nM) | cell viability (NOMO-1; 10000 nM) | cell viability (THP-1; 1 nM) | cell viability (THP-1; 10 nM) | cell viability (THP-1; 100 nM) | cell viability (THP-1; 1000 nM) | cell viability (THP-1; 10000 nM) |
| --- | --- | --- | --- | --- | --- | --- | --- | --- | --- | --- | --- | --- | --- | --- | --- | --- | --- | --- | --- | --- |
| Clc1ccc2c(c1Cl)CNCC2 | 91.5% | 118% | 90% | 102% | 87.9% | 102% | 125% | 70.3% | 92.3% | 83.7% | 95.4% | 100% | 101% | 102% | 90.9% | 98.8% | 99.4% | 99.7% | 105% | 90.5% |
| O=C(O)C(S)=Cc1c[nH]c2ccc(F)cc12 | 101% | 98.6% | 113% | 111% | 91.5% | 95.9% | 103% | 99.9% | 107% | 77.3% | 103% | 97.9% | 107% | 116% | 94.8% | 99.1% | 97.6% | 98% | 113% | 101% |
| CC(C)Cc1sc(N)nc1-c1ccc(P(=O)(O)O)o1 | 98.1% | 108% | 105% | 103% | 92.7% | 134% | 97% | 102% | 113% | 104% | 97.7% | 96.9% | 98% | 99.5% | 83.9% | 107% | 103% | 98.3% | 104% | 95.5% |
| Cl.OC[C@H]1NC[C@@H](O)[C@@H](O)[C@@H]1O [1-Deoxymannojirimycin hydrochloride] | 101% | 90.6% | 100% | 110% | 87.6% | 115% | 88.3% | 96.3% | 104% | 105% | 103% | 89.9% | 104% | 99.3% | 92.1% | 107% | 91% | 98% | 102% | 91.9% |
| CN(C)c1nc(O)c2[nH]cnc2n1 [2-Dimethylamino-6-hydroxypurine] | 97.7% | 89.6% | 95.3% | 107% | 94.5% | 96.1% | 65.7% | 104% | 91% | 66.9% | 101% | 95.9% | 108% | 102% | 105% | 95.1% | 94.5% | 86.6% | 97.3% | 97.3% |
| O=C(O)c1cc2sccc2[nH]1 [4H-thieno[3,2-b]pyrrole-5-carboxylic acid] | 105% | 96.6% | 84.2% | 99.1% | 113% | 103% | 94.7% | 89.3% | 112% | 109% | 105% | 97.8% | 98.3% | 106% | 110% | 105% | 102% | 106% | 97.7% | 105% |
